Data from article PMC4822888, “Subtype-Selective Small Molecule Inhibitors Reveal a Fundamental Role for Nav1.7 in Nociceptor Electrogenesis, Axonal Conduction and Presynaptic Release” (PLoS ONE, 2016).

Assays:
dogNav1.7 = dogNav1.7 (Canis lupus familiaris, UniProt A0A8I3P4Z8); assay: cell-based; format: cell-based, dog
L-type calcium channels = assay: Blockade of L-type calcium channels
human TRPV1 receptor = human TRPV1 receptor (Homo sapiens, UniProt Q8NER1); assay: Blockade of human TRPV1 receptor
Adenosine A2a receptor = Adenosine A2a receptor (Homo sapiens, UniProt P29274); assay: Off target activity panel; format: binding; conditions: read-out: Inhibition at test concentration (%)
Adenosine A3 receptor = Adenosine A3 receptor (Homo sapiens, UniProt P0DMS8); assay: Off target activity panel; format: binding; conditions: read-out: Inhibition at test concentration (%)
[1] = biological target: Adrenergic alpha 2A receptor (Homo sapiens, UniProt P08913); assay: Off target activity panel; format: binding; conditions: read-out: Inhibition at test concentration (%)
AMPA receptor = assay: Off target activity panel; format: binding; conditions: 10 µM
GABA Benzodiazepine site = assay: Off target activity panel; format: binding; conditions: 10 µM
[2] = system: Calcium channel L-type (diltiazem site); assay: Off target activity panel; format: binding; conditions: 10 µM
Cannabinoid receptor 1 = Cannabinoid receptor 1 (Homo sapiens, UniProt P21554); assay: Off target activity panel; format: binding; conditions: read-out: Inhibition at test concentration (%)
Cannabinoid receptor 2 = Cannabinoid receptor 2 (Homo sapiens, UniProt P34972); assay: Off target activity panel; format: binding; conditions: read-out: Inhibition at test concentration (%)
Choline transporter = Choline transporter (Homo sapiens, UniProt Q9GZV3); assay: Off target activity panel; format: binding; conditions: read-out: Inhibition at test concentration (%)
[3] = biological target: Cholycystokinin 1 (CCKA) receptor (Homo sapiens, UniProt P32238); assay: Off target activity panel; format: binding; conditions: read-out: Inhibition at test concentration (%)
Delta opioid receptor = Delta opioid receptor (Homo sapiens, UniProt P41143); assay: Off target activity panel; format: binding; conditions: read-out: Inhibition at test concentration (%)
Dopamine D2 receptor = Dopamine D2 receptor (Homo sapiens, UniProt P14416); assay: Off target activity panel; format: binding; conditions: read-out: Inhibition at test concentration (%)
Dopamine D4 receptor = Dopamine D4 receptor (Homo sapiens, UniProt P21917); assay: Off target activity panel; format: binding; conditions: read-out: Inhibition at test concentration (%)
Dopamine transporter = Dopamine transporter (Homo sapiens, UniProt Q01959); assay: Off target activity panel; format: binding; conditions: read-out: Inhibition at test concentration (%)
FLT-1 kinase = FLT-1 kinase (Homo sapiens, UniProt P17948); assay: Off target activity panel; format: biochemical; conditions: read-out: Inhibition at test concentration (%)
GABA transporter = assay: Off target activity panel; format: binding; conditions: 10 µM
Histamine H1 receptor = Histamine H1 receptor (Homo sapiens, UniProt P35367); assay: Off target activity panel; format: binding; conditions: read-out: Inhibition at test concentration (%)
Histamine H2 receptor = Histamine H2 receptor (Homo sapiens, UniProt P25021); assay: Off target activity panel; format: binding; conditions: read-out: Inhibition at test concentration (%)
Kappa opioid receptor = Kappa opioid receptor (Homo sapiens, UniProt P41145); assay: Off target activity panel; format: binding
Lyn A kinase = Lyn A kinase (Homo sapiens, UniProt P07948); assay: Off target activity panel; format: biochemical
Melanocortin 4 receptor = Melanocortin 4 receptor (Homo sapiens, UniProt P32245); assay: Off target activity panel; format: binding; conditions: read-out: Inhibition at test concentration (%)
Monoamine oxidase A = Monoamine oxidase A (Homo sapiens, UniProt P21397); assay: Off target activity panel; format: biochemical; conditions: read-out: Inhibition at test concentration (%)
Mu opiod receptor = Mu opiod receptor (Homo sapiens, UniProt P35372); assay: Off target activity panel; format: binding; conditions: read-out: Inhibition at test concentration (%)
Muscarinic M2 receptor = Muscarinic M2 receptor (Homo sapiens, UniProt P08172); assay: Off target activity panel; format: binding; conditions: read-out: Inhibition at test concentration (%)
[4] = system: Muscle-type nicotinic receptor; assay: Off target activity panel; format: binding; conditions: 10 µM
Neurokinin NK1 receptor = Neurokinin NK1 receptor (Homo sapiens, UniProt P25103); assay: Off target activity panel; format: binding; conditions: read-out: Inhibition at test concentration (%)
Neurokinin NK2 receptor = Neurokinin NK2 receptor (Homo sapiens, UniProt P21452); assay: Off target activity panel; format: binding; conditions: read-out: Inhibition at test concentration (%)
Serotonin 5-HT1A = Serotonin 5-HT1A (Homo sapiens, UniProt P08908); assay: Off target activity panel; format: binding; conditions: read-out: Inhibition at test concentration (%)
Serotinin 5-HT2B = Serotinin 5-HT2B (Homo sapiens, UniProt P41595); assay: Off target activity panel; format: binding; conditions: read-out: Inhibition at test concentration (%)
Serotonin 5-HT2C = Serotonin 5-HT2C (Homo sapiens, UniProt P28335); assay: Off target activity panel (first 5-HT2C line); format: binding; conditions: read-out: Inhibition at test concentration (%)
Serotonin 5-HT3 = Serotonin 5-HT3 (Homo sapiens, UniProt P46098); assay: Off target activity panel; format: binding; conditions: read-out: Inhibition at test concentration (%)
Urotensin receptor = Urotensin receptor (Homo sapiens, UniProt Q9UKP6); assay: Off target activity panel; format: binding; conditions: read-out: Inhibition at test concentration (%)
PPAR gamma = biological target: T1, PPAR gamma (Homo sapiens, UniProt P37231); assay: Off target panel, functional activity (agonist/antagonist); format: biochemical; conditions: at 10 µM
T1 sequence (P37231 1-505): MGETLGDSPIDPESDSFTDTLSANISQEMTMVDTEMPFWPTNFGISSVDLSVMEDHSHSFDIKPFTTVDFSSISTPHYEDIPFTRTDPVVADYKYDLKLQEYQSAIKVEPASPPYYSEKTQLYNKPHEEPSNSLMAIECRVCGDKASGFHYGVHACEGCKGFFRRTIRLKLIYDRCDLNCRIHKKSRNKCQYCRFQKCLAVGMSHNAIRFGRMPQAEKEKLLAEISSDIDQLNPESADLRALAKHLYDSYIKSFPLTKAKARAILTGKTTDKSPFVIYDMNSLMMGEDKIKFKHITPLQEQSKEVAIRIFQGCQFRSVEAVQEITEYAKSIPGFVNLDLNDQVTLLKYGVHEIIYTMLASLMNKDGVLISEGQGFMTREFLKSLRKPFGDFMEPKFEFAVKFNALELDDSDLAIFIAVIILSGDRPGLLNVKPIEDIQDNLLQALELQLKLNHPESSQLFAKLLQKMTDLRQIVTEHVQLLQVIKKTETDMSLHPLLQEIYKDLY

hERG potassium channels = hERG potassium channels (Homo sapiens, UniProt Q12809)
[5] = 10 µM, read-out: Inhibition at test concentration (%)

## Nc1[nH]ncc1-c1cc(Cl)ccc1Oc1cc(F)c(S(=O)(=O)Nc2cscn2)cc1Cl [PF-05089771, 4-[2-(5-amino-1H-pyrazol-4-yl)-4-chlorophenoxy]-5-chloro-2-fluoro-N-(1,3-thiazol-4-yl)benzenesulfonamide]
dogNav1.7
  IC50: 0.013 µM
dogNav1.7; dogNav1.7
  Slope: 0.9
L-type calcium channels
  IC50: 10 µM
Human TRPV1 receptor; at 20 µM, TRPV1
  Functional activity: No agonist or antagonist activity at 20 µM
Human TRPV1 receptor; tested concentrations up to 20 μM
  Blockade of human TRPV1 receptor: No blockade
Adenosine A2a receptor
  inhibition at 10 µM: 15%
Adenosine A3 receptor
  inhibition at 10 µM: 4%
[1]
  inhibition at 10 µM: 10%
AMPA receptor
  Inhibition at test concentration (%): -13%
GABA Benzodiazepine site
  Inhibition at test concentration (%): 5%
[2]
  Inhibition at test concentration (%): 16%
Cannabinoid receptor 1
  inhibition at 10 µM: 0%
Cannabinoid receptor 2
  inhibition at 10 µM: -5%
Choline transporter
  inhibition at 10 µM: 18%
[3]
  inhibition at 10 µM: 17%
Delta opioid receptor
  inhibition at 10 µM: 15%
Dopamine D2 receptor
  inhibition at 10 µM: 10%
Dopamine D4 receptor
  inhibition at 10 µM: 5%
Dopamine transporter
  inhibition at 10 µM: 18%
FLT-1 kinase
  inhibition at 10 µM: 14%
GABA transporter
  Inhibition at test concentration (%): 1%
Histamine H1 receptor
  inhibition at 10 µM: 12%
Histamine H2 receptor
  inhibition at 10 µM: -3%
Kappa opioid receptor; [5]
  inhibition at 10 µM: 86%
Kappa opioid receptor; Kappa opioid receptor
  Ki: 0.39 µM
Lyn A kinase; [5]
  inhibition at 10 µM: 51%
Lyn A kinase; Lyn A kinase
  Ki: 7.3 µM
Melanocortin 4 receptor
  inhibition at 10 µM: -11%
Monoamine oxidase A
  inhibition at 10 µM: -13%
Mu opiod receptor
  inhibition at 10 µM: 7%
Muscarinic M2 receptor
  inhibition at 10 µM: 3%
[4]
  Inhibition at test concentration (%): 2%
Neurokinin NK1 receptor
  inhibition at 10 µM: 5%
Neurokinin NK2 receptor
  inhibition at 10 µM: -10%
Serotonin 5-HT1A
  inhibition at 10 µM: 13%
Serotinin 5-HT2B
  inhibition at 10 µM: -6%
Serotonin 5-HT2C
  inhibition at 10 µM: -4%
Serotonin 5-HT3
  inhibition at 10 µM: 4%
Urotensin receptor
  inhibition at 10 µM: 32%
PPAR gamma
  Functional activity: no agonist or antagonist activity at 10 µM
hERG potassium channels
  IC50: 10 µM
